The text below walks through data of US20250179059A1 (The Regents of the University of California, priority 2021, published 2025).

Assay [1] has as its system human SKM-1 acute myeloid leukemia cells. In words: SKM-1 antiproliferation cell-based assay (ATPlite). Particulars: Homo sapiens. On the procedure:
The cell-based assay indirectly measures cell density (and therefore proliferation and/or survival) by detecting total ATP concentration in a homogeneous format. Briefly, human SKM-1 acute myeloid leukemia cells (Leibniz Institute DSMZ #ACC 547) proliferating in log phase are collected by centrifugation, re-suspended in culture media (RPMI 1640/15% FBS/100 U/mL penicillin/100 μg/mL streptomycin) and diluted to 34722 cells/mL in media after counting. Then 180 μL cells are plated per well into a 96-well tissue-culture treated, clear bottom plate (Coming #3603). A 96-well compound plate (Corning #3357) is then generated by serial dilution of compounds into DMSO over nine concentrations and adding separate negative (DMSO) and positive control (reference compound) wells. Each compound concentration is tested in triplicate. First, 1 μL from each well of the compound plate is added to 99 μL culture media in an intermediate plate and mixed by pipetting. Then 20 μL of the diluted compounds in media are added to the assay plate containing the cells. The assay plate is maintained for 4 days in a standard cell culture incubator. At the end of the incubation period, 100 μL ATPlite Istep (PerkinElmer) is added to the assay plate wells, and the resulting luminescence is detected using an Infinite M1000 or a Spark multimode plate reader (Tecan). Data analysis is performed in Prism (GraphPad Software). For curve fitting, a non-linear regression, variable slope equation is used to calculate cellular IC50s.
In general terms: In ATP-based viability assays light output follows the ATP content of the culture.

Assay [2] has as its target T1, human BRD4 bromodomain II (Homo sapiens, UniProt O60885).
T1 construct: human BRD4 bromodomain II [based on Genbank NM_058243, residues 349-460]; host or cells: E. coli
In words: Bromodomain binding assay (AlphaScreen), BRD4 BDII. The method, boiled down:
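AlphaScreen competition with biotinylated H4 peptide (aa 1-21, K5/K8/K12/K16Ac), using nickel-chelate acceptor and streptavidin donor beads. Targets were His6-BRD4 BDI (44-170) or BDII (349-460), with a 30 min compound preincubation over a 10-point 3-fold series. IC50 was fitted from percentage peptide binding.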
Background: Bead proximity is the source of the signal in Alpha formats.

Setting [3] is: SKM-1, 96 h, SKM-1 antiproliferation assay, 4 days, Table C2.
Setting [4] is: AlphaScreen assay, Table C2, read-out: BRD4 BDII IC50.
The mark [5] stands for this setting: SKM-1, SKM-1 antiproliferation assay.
Where [6] appears, read: BRD4 BDII AlphaScreen assay, read-out: BRD4 BD2 IC50.

Like-named read-outs stand apart in the source and are kept apart here. Where only a bound is given, the exact number is not on record here.

Regarding `CN1CCN(c2ccc(-c3cccc(-c4cc(CO)cc(N5CCNCC5)c4)c3O)cc2Cl)C1=O` [Example 355, 1-(3-chloro-2′-hydroxy-3″-(hydroxymethyl)-5″-(piperazin-1-yl)-[1,1′:3′,1″-terphenyl]-4-yl)-3-methylimidazolidin-2-one], the concentration for 50% growth inhibition (GI50) in assay [1] (setting [3]) lay within 30 to 300 nM. For the same compound, the IC50 in assay [2] (setting [4]) fell in the range of 1 to 10 nM.
Consider `Cn1ccn(-c2ccc(-c3ccnc(-c4cccc(N5CCN(C(C)(C)C)CC5)c4)c3N)cc2Cl)c1=O` [Example 976, 1-(4-(3-Amino-2-(3-(4-(tert-butyl)piperazin-1-yl)phenyl)pyridin-4-yl)-2-chlorophenyl)-3-methyl-1H-imidazol-2(3H)-one], for which the 50% growth inhibitory concentration (GI50) in assay [1] (setting [5]) was in the range of 0.3 to 30 nM. Also, the concentration for half-maximal inhibition (IC50) in assay [2] (setting [6]) lay in the range of 1 to 10 nM.
Turning to `Cn1ccn(-c2ccc(-c3cc(F)cc(-c4cc(N5CCN6CCCCC6C5)c5cnn(C)c5c4)c3O)cc2Cl)c1=O` (centres unmarked) [Example 609, 1-(3-chloro-5′-fluoro-3′-(4-(hexahydro-1H-pyrido[1,2-a]pyrazin-2(6H)-yl)-1-methyl-1H-indazol-6-yl)-2′-hydroxy-[1,1′-biphenyl]-4-yl)-3-methyl-1H-imidazol-2(3H)-one], the GI50 in assay [1] (setting [3]) fell in the range of 0.3 to 30 nM. Also, the IC50 in assay [2] (setting [4]) was 0.01 to 1 nM.
As for `CC(=O)Nc1cc(-c2cc(F)cc(-c3ccc(-n4ccn(C)c4=O)c(Cl)c3)c2O)cc(N2CCN[C@H](C)C2)n1` [Example 544], in assay [1] (setting [3]), the GI50 is 0.3 to 30 nM. Besides, the IC50 in assay [2] (setting [4]) was in the range of 0.01 to 1 nM.
Take `CN1CCN(c2ccc(-c3cccc(-c4cncc(N5CCC(N)CC5)c4)c3O)cc2Cl)C1=O` [Example 305, 1-(3′-(5-(4-aminopiperidin-1-yl)pyridin-3-yl)-3-chloro-2′-hydroxy-[1,1′-biphenyl]-4-yl)-3-methylimidazolidin-2-one]: the GI50 in assay [1] (setting [3]) lay within 30 to 300 nM. In addition, the IC50 in assay [2] (setting [4]) lay within 1 to 10 nM.
The matching figures for `Cn1ccn(-c2ccc(-c3cc(F)cc(-c4ccnc(N5CC6CCNC6C5)c4)c3O)cc2Cl)c1=O` (centres unmarked) [Example 655, 1-(3-chloro-5′-fluoro-3′-(2-(hexahydropyrrolo[3,4-b]pyrrol-5(1H)-yl)pyridin-4-yl)-2′-hydroxy-[1,1′-biphenyl]-4-yl)-3-methyl-1H-imidazol-2(3H)-one]: 0.3 to 30 nM and 0.01 to 1 nM.
Take `CC(=O)Nc1ccc(-c2cccc(-c3cc(C(N)=O)nc(N4CCNCC4)c3)c2O)cc1F` [Example 273, 4-(4′-acetamido-3′-fluoro-2-hydroxy-[1,1′-biphenyl]-3-yl)-6-(piperazin-1-yl)picolinamide]: the GI50 in assay [1] (setting [3]) lay within 300 to 3000 nM. Also, the IC50 in assay [2] (setting [4]) fell in the range of 10 to 100 nM.
`Cn1ccn(-c2ccc(-c3cc(F)cc(-c4ccnc(N5CCNc6ccccc65)c4)c3O)cc2Cl)c1=O` [Example 532, 1-(3-chloro-3′-(2-(3,4-dihydroquinoxalin-1(2H)-yl)pyridin-4-yl)-5′-fluoro-2′-hydroxy-[1,1′-biphenyl]-4-yl)-3-methyl-1H-imidazol-2(3H)-one]: the 50% growth inhibitory concentration (GI50) in assay [1] (setting [3]) was not below 3000 nM. Moreover, the IC50 in assay [2] (setting [4]) was more than 100 nM.
As to `C[C@@H]1CN(c2cc(-c3cc(F)cc(-c4ccc(-n5ccn(C)c5=O)c(Cl)c4)c3O)cc(=O)n2C)CCN1` [Example 689, (R)-4-(3′-chloro-5-fluoro-2-hydroxy-4′-(3-methyl-2-oxo-2,3-dihydro-1H-imidazol-1-yl)-[1,1′-biphenyl]-3-yl)-1-methyl-6-(3-methylpiperazin-1-yl)pyridin-2(1H)-one], the concentration for 50% growth inhibition (GI50) in assay [1] (setting [3]) was in the range of 0.3 to 30 nM. For the same compound, the IC50 in assay [2] (setting [4]) fell in the range of 0.01 to 1 nM.
Take `Cn1cc(-c2cc(F)cc(-c3ccc(-n4ccn(C)c4=O)c(Cl)c3)c2O)cc(N2CCC3(CCCN3)C2)c1=O` (centres unmarked) [Example 687, 5-(3′-chloro-5-fluoro-2-hydroxy-4′-(3-methyl-2-oxo-2,3-dihydro-1H-imidazol-1-yl)-[1,1′-biphenyl]-3-yl)-1-methyl-3-(1,7-diazaspiro[4.4]nonan-7-yl)pyridin-2(1H)-one]: the GI50 in assay [1] (setting [3]) was 0.3 to 30 nM. For the same compound, the IC50 in assay [2] (setting [4]) is 0.01 to 1 nM.
Turning to `Cn1ccn(-c2ccc(-c3cc(F)cc(-c4ccnc(N5CCN(CC6COC6)CC5)c4)c3O)cc2Cl)c1=O` [Example 611, 1-(3-chloro-5′-fluoro-2′-hydroxy-3′-(2-(4-(oxetan-3-ylmethyl)piperazin-1-yl)pyridin-4-yl)-[1,1′-biphenyl]-4-yl)-3-methyl-1H-imidazol-2(3H)-one], the GI50 in assay [1] (setting [3]) is 0.3 to 30 nM. The IC50 in assay [2] (setting [4]) was in the range of 0.01 to 1 nM.
Turning to `COc1cc(-c2cc(F)cc(-c3cccc(N4CCN(C(C)(C)C)CC4)c3)c2O)cc(Cl)c1-n1ccn(C)c1=O` [Example 910, 1-(3″-(4-(tert-butyl)piperazin-1-yl)-3-chloro-5′-fluoro-2′-hydroxy-5-methoxy-[1,1′:3′,1″-terphenyl]-4-yl)-3-methyl-1H-imidazol-2(3H)-one], the concentration for 50% growth inhibition (GI50) in assay [1] (setting [5]) was 30 to 300 nM. Besides, the IC50 in assay [2] (setting [6]) lay in the range of 10 to 100 nM.
In turn, `CC(=O)Nc1ccc(-c2cccc(-c3cc(NCCO)nc(N4CCNCC4)c3)c2O)cc1F` [Example 333, N-(3-fluoro-2′-hydroxy-3′-(2-((2-hydroxyethyl)amino)-6-(piperazin-1-yl)pyridin-4-yl)-[1,1′-biphenyl]-4-yl)acetamide] came in with a concentration for 50% growth inhibition (GI50) in assay [1] (setting [3]) of 30 to 300 nM. In addition, the half-maximal inhibitory concentration (IC50) in assay [2] (setting [4]) was in the range of 1 to 10 nM.
`CN1CCN(c2ccc(-c3cc(F)cc(-c4ccnc(N5CCNc6ccccc65)c4)c3O)cc2Cl)C1=O` [Example 483, 1-(3-chloro-3′-(2-(3,4-dihydroquinoxalin-1(2H)-yl)pyridin-4-yl)-5′-fluoro-2′-hydroxy-[1,1′-biphenyl]-4-yl)-3-methylimidazolidin-2-one]: the concentration for 50% growth inhibition (GI50) in assay [1] (setting [3]) is not below 3000 nM. In addition, the 50% inhibitory concentration (IC50) in assay [2] (setting [4]) was more than 100 nM.
`CN1CCN(c2c(Cl)cc(-c3cc(F)cc(-c4ccnc(N5CCNCC5)c4)c3O)cc2Cl)C1=O` [Example 404, 1-(3,5-dichloro-5′-fluoro-2′-hydroxy-3′-(2-(piperazin-1-yl)pyridin-4-yl)-[1,1′-biphenyl]-4-yl)-3-methylimidazolidin-2-one]: the GI50 in assay [1] (setting [3]) fell in the range of 300 to 3000 nM. Besides, the IC50 in assay [2] (setting [4]) is more than 100 nM.
With `CN1CCN(c2ccc(-c3cccc(-c4ccnc(N5CC6(CNC6)C5)c4)c3O)cc2F)C1=O` [Example 322, 1-(3′-(2-(2,6-diazaspiro[3.3]heptan-2-yl)pyridin-4-yl)-3-fluoro-2′-hydroxy-[1,1′-biphenyl]-4-yl)-3-methylimidazolidin-2-one], the GI50 in assay [1] (setting [3]) was in the range of 30 to 300 nM. For the same compound, the concentration for half-maximal inhibition (IC50) in assay [2] (setting [4]) is 10 to 100 nM.
For the compound `Cn1ccn(-c2ccc(-c3cc(F)cc(-c4ccnc(N5CC6CCC(C5)C6(C)N)c4)c3O)cc2Cl)c1=O` (centres unmarked) [Example 757, 1-(3′-(2-(8-amino-8-methyl-3-azabicyclo[3.2.1]octan-3-yl)pyridin-4-yl)-3-chloro-5′-fluoro-2′-hydroxy-[1,1′-biphenyl]-4-yl)-3-methyl-1H-imidazol-2(3H)-one], the GI50 in assay [1] (setting [3]) lay in the range of 30 to 300 nM. Also, the IC50 in assay [2] (setting [4]) is 0.01 to 1 nM.
Consider `O=C1NCCCN1c1ccc(-c2cccc(-c3ccnc(N4CCNCC4)c3)c2O)cc1F` [Example 277, 1-(3-fluoro-2′-hydroxy-3′-(2-(piperazin-1-yl)pyridin-4-yl)-[1,1′-biphenyl]-4-yl)tetrahydropyrimidin-2(1H)-one], for which the 50% growth inhibitory concentration (GI50) in assay [1] (setting [3]) was 300 to 3000 nM. The IC50 in assay [2] (setting [4]) is more than 100 nM.
In the case of `Cc1cc(-c2ccc(-n3ccn(C)c3=O)c(C)c2)c(O)c(-c2cccc(N3CCN(C(C)(C)C)CC3)c2)n1` [Example 1012, 1-(4-(2-(3-(4-(tert-butyl)piperazin-1-yl)phenyl)-3-hydroxy-6-methylpyridin-4-yl)-2-methylphenyl)-3-methyl-1H-imidazol-2(3H)-one], the GI50 in assay [1] (setting [5]) lay in the range of 0.3 to 30 nM. Besides, the half-inhibitory concentration (IC50) in assay [2] (setting [6]) fell in the range of 1 to 10 nM.

As a reminder, the GI50 is the concentration giving 50% growth inhibition. A high value points to less potent growth inhibition. One may read the IC50 as the concentration at which inhibition is half-maximal.
